Assay results published in patent US20210267203A1, “PESTICIDALLY ACTIVE AZOLE-AMIDE COMPOUNDS” (SYNGENTA PARTICIPATIONS AG, priority 2018, published 2021).

Legend:
Type in all cases: in vivo
[1] = system: Chilo suppressalis (Striped Rice Stemborer); assay: Example B4: Chilo suppressalis (striped rice stemborer), artificial diet, L2 larvae; conditions: 144 h, application rate 200 ppm, 6 days after infestation
Description: Example B4: Chilo suppressalis (Striped Rice Stemborer)
24-well microtiter plates with artificial diet were treated with aqueous test solutions prepared from 10,000 ppm DMSO stock solutions by pipetting. After drying, the plates were infested with L2 larvae (6-8 per well). The samples were assessed for mortality, anti-feeding effect, and growth inhibition in comparison to untreated samples 6 days after infestation. Control of Chilo suppressalis by a test sample is given when at least one of the categories (i.e. mortality, anti-feedant effect, and growth inhibition) is higher than the untreated sample.

[2] = system: Diabrotica Balteata (Corn Root Worm); assay: Example B1: Diabrotica balteata (corn root worm), maize sprouts sprayed, L2 larvae; conditions: 96 h, application rate 200 ppm, 4 days after infestation, read-out: effect in at least one of the two categories (mortality or growth inhibition)
Outline: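 Maize sprouts on agar sprayed with aqueous dilutions of 10,000 ppm DMSO stocks, dried, then infested with 6–10 L2 larvae per well. Mortality and growth inhibition scored against untreated samples 4 days after infestation; rates of 200 ppm.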

[3] = system: Myzus persicae (Green Peach Aphid); assay: Example B8: Myzus persicae (green peach aphid), intrinsic activity; conditions: 120 h, test rate 12 ppm, sucrose solution, 24-well, 5 days after infestation
Excerpt: Example B8: Myzus persicae (Green Peach Aphid), Intrinsic Activity
Test compounds prepared from 10,000 ppm DMSO stock solutions were applied by pipette into 24-well microtiter plates and mixed with sucrose solution. The plates were closed with a stretched Parafilm. A plastic stencil with 24 holes was placed onto the plate and infested pea seedlings were placed directly on the Parafilm. The infested plate was closed with a gel blotting paper and another plastic stencil and then turned upside down. The samples were assessed for mortality 5 days after infestation.

[4] = system: Myzus persicae (Green Peach Aphid); assay: Example B13: activity against Myzus persicae (green peach aphid), 96-well sucrose solution; conditions: 120 h, application rate 50 ppm, 5 days after infestation
Outline: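 Compounds, from 10,000 ppm DMSO stocks, mixed into sucrose solution in wells under stretched Parafilm, with aphids placed on the membrane in an inverted feeding setup. Mortality scored 5 days after infestation.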

[5] = system: Plutella xylostella (Diamondback Moth); assay: Example B14: activity against Plutella xylostella (diamondback moth), 96-well artificial diet; conditions: 216 h, application rate 500 ppm, 9 days after infestation
Outline: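 Diet in 96-well plates was treated with aqueous dilutions of 10,000 ppm DMSO stocks, dried, and infested with 30 eggs per well via a netted lid; hatching L1 larvae fed on the diet. Mortality scored 9 days after infestation.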

[6] = system: Thrips tabaci (Onion Thrips); assay: Example B12: Thrips tabaci (onion thrips), feeding/contact activity; conditions: 144 h, application rate 200 ppm, mixed ages, 6 days after infestation
Description: Example B12: Thrips tabaci (Onion Thrips) Feeding/Contact Activity
Sunflower leaf discs were placed on agar in 24-well microtiter plates and sprayed with aqueous test solutions prepared from 10,000 ppm DMSO stock solutions. After drying the leaf discs were infested with a thrips population of mixed ages. The samples were assessed for mortality 6 days after infestation.

[7] = system: Euschistus heros (Neotropical Brown Stink Bug); assay: Example B2: Euschistus heros (neotropical brown stink bug), soybean leaves sprayed, N2 nymphs; conditions: 120 h, application rate 200 ppm, 5 days after infestation, read-out: effect in at least one of the two categories (mortality or growth inhibition)
Description: Example B2: Euschistus heros (Neotropical Brown Stink Bug)
Soybean leaves on agar in 24-well microtiter plates were sprayed with aqueous test solutions prepared from 10,000 ppm DMSO stock solutions. After drying the leaves were infested with N2 nymphs. The samples were assessed for mortality and growth inhibition in comparison to untreated samples 5 days after infestation.
The following compounds gave an effect of at least 80% in at least one of the two categories (mortality or growth inhibition) at an application rate of 200 ppm: […]

[8] = system: Plutella xylostella (Diamond Back Moth); assay: Example B5: Plutella xylostella (diamond back moth), artificial diet, 24-well, eggs; conditions: 192 h, application rate 200 ppm, 8 days after infestation, read-out: effect in at least one of the two categories (mortality or growth inhibition)
Outline: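 Artificial diet in 24-well plates treated with aqueous dilutions of 10,000 ppm DMSO stocks, dried, then infested with Plutella eggs. Mortality and growth inhibition scored against untreated samples 8 days after infestation; activity rated at 200 ppm application rate.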

[9] = system: Spodoptera littoralis (Egyptian Cotton Leaf Worm); assay: Example B10: Spodoptera littoralis (Egyptian cotton leaf worm), uptake by lettuce roots from agar, eggs; conditions: 144 h, test rate 12.5 ppm, lettuce root uptake, 6 days after infestation, read-out: effect in at least one of the three categories (mortality, anti-feeding, or growth inhibition)
Excerpt: Example B10: Spodoptera littoralis (Egyptian Cotton Leaf Worm)
Test compounds were applied by pipette from 10,000 ppm DMSO stock solutions into 24-well plates and mixed with agar. Lettuce seeds were placed onto the agar and the multi well plate was closed by another plate which contained also agar. After 7 days the compound was absorbed by the roots and the lettuce grew into the lid plate. The lettuce leaves were then cut off into the lid plate. Spodoptera eggs were pipetted through a plastic stencil onto a humid gel blotting paper and the lid plate was closed with it. The samples were assessed for mortality, anti-feedant effect and growth inhibition in comparison to untreated samples 6 days after infestation.
The following compounds gave an effect of at least 80% in at least one of the three categories (mortality, anti-feeding, or growth inhibition) at a test rate of 12.5 ppm: […]

[10] = system: Spodoptera littoralis (Egyptian Cotton Leaf Worm); assay: Example B9: Spodoptera littoralis (Egyptian cotton leaf worm), cotton leaf discs sprayed, L1 larvae; conditions: foliar, 72 h, application rate 200 ppm, 3 days after infestation
Outline: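 Leaf discs on agar sprayed with aqueous dilutions from 10,000 ppm DMSO stock, dried, then infested with five L1 larvae. Mortality, anti-feeding and growth inhibition scored against untreated samples 3 days after infestation; control counted when any category exceeds untreated.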

[11] = system: Myzus persicae (Green Peach Aphid); assay: Example B6: Myzus persicae (green peach aphid), feeding/contact activity; conditions: 144 h, application rate 200 ppm, 6 days after infestation
Description: Example B6: Myzus persicae (Green Peach Aphid):Feeding/Contact Activity
Sunflower leaf discs were placed onto agar in a 24-well microtiter plate and sprayed with aqueous test solutions prepared from 10,000 ppm DMSO stock solutions. After drying, the leaf discs were infested with an aphid population of mixed ages. The samples were assessed for mortality 6 days after infestation.

CC(NC(=O)c1cc(C2CC2C(F)(F)F)cc(C(F)(F)F)c1)c1ncnn1-c1ncccn1 (stereo not shown) [P25, N-[1-(2-pyrimidin-2-yl-1,2,4-triazol-3-yl)ethyl]-3-(trifluoromethyl)-5-[2-(trifluoromethyl)cyclopropyl]benzamide]
≥ 80%: percent control (mortality, anti-feedant effect or growth inhibition) at 200 ppm [1] | percent effect (mortality or growth inhibition) at 200 ppm [2] | mortality at 12 ppm [3] | mortality at 50 ppm [4] | mortality at 500 ppm [5] | mortality at 200 ppm [6] | percent effect (mortality or growth inhibition) at 200 ppm [7] | percent effect (mortality or growth inhibition) at 200 ppm [8] | percent effect (mortality, anti-feeding or growth inhibition) at 12.5 ppm [9] | percent control (mortality, anti-feedant effect or growth inhibition) at 200 ppm [10]

CC(c1ncnn1-c1ncccn1)N(CC1CC1)C(=O)c1cc(Cl)cc(C2(C#N)CC2)n1 (stereo not shown) [P29, 4-chloro-6-(1-cyanocyclopropyl)-N-(cyclopropylmethyl)-N-[1-(2-pyrimidin-2-yl-1,2,4-triazol-3-yl)ethyl]pyridine-2-carboxamide]
≥ 80%: percent effect (mortality or growth inhibition) at 200 ppm [2] | mortality at 12 ppm [3] | mortality at 50 ppm [4] | mortality at 500 ppm [5] | mortality at 200 ppm [6] | percent effect (mortality or growth inhibition) at 200 ppm [7] | percent effect (mortality or growth inhibition) at 200 ppm [8]

CC(c1ncnn1-c1ncccn1)N(CC1CC1)C(=O)c1cc(C(F)(F)F)cc(S(=O)(=O)C(F)F)c1 (stereo not shown) [P30, N-(cyclopropylmethyl)-3-(difluoromethylsulfonyl)-N-[1-(2-pyrimidin-2-yl-1,2,4-triazol-3-yl)ethyl]-5-(trifluoromethyl)benzamide]
≥ 80%: percent effect (mortality or growth inhibition) at 200 ppm [2] | mortality at 12 ppm [3] | mortality at 50 ppm [4] | mortality at 500 ppm [5] | mortality at 200 ppm [6] | percent effect (mortality or growth inhibition) at 200 ppm [7] | percent effect (mortality or growth inhibition) at 200 ppm [8]

CC(c1ncnn1-c1ncccn1)N(CC1CC1)C(=O)c1cc(C(F)(F)F)nc(C2(C#N)CC2)c1 (stereo not shown) [P32, 2-(1-cyanocyclopropyl)-N-(cyclopropylmethyl)-N-[1-(2-pyrimidin-2-yl-1,2,4-triazol-3-yl)ethyl]-6-(trifluoromethyl)pyridine-4-carboxamide]
≥ 80%: percent control (mortality, anti-feedant effect or growth inhibition) at 200 ppm [1] | percent effect (mortality or growth inhibition) at 200 ppm [2] | mortality at 50 ppm [4] | mortality at 500 ppm [5] | mortality at 200 ppm [6] | percent effect (mortality or growth inhibition) at 200 ppm [7] | percent effect (mortality or growth inhibition) at 200 ppm [8] | percent effect (mortality, anti-feeding or growth inhibition) at 12.5 ppm [9] | percent control (mortality, anti-feedant effect or growth inhibition) at 200 ppm [10]

CC(c1ncnn1-c1ncccn1)N(CC1CC1)C(=O)c1cc(C(F)(F)F)cc(C2(C)CC2C(F)(F)F)c1 (stereo not shown) [P43, N-(cyclopropylmethyl)-3-[1-methyl-2-(trifluoromethyl)cyclopropyl]-N-[1-(2-pyrimidin-2-yl-1,2,4-triazol-3-yl)ethyl]-5-(trifluoromethyl)benzamide]
≥ 80%: percent control (mortality, anti-feedant effect or growth inhibition) at 200 ppm [1] | percent effect (mortality or growth inhibition) at 200 ppm [2] | mortality at 12 ppm [3] | mortality at 50 ppm [4] | mortality at 500 ppm [5] | percent effect (mortality or growth inhibition) at 200 ppm [8] | percent effect (mortality, anti-feeding or growth inhibition) at 12.5 ppm [9] | percent control (mortality, anti-feedant effect or growth inhibition) at 200 ppm [10]

CC(c1ncnn1-c1ncccn1)N(CC1CC1)C(=O)c1cc(C2CC2)cc(C(F)(F)F)c1 (stereo not shown) [P52, 3-cyclopropyl-N-(cyclopropylmethyl)-N-[1-(2-pyrimidin-2-yl-1,2,4-triazol-3-yl)ethyl]-5-(trifluoromethyl)benzamide]
≥ 80%: percent effect (mortality or growth inhibition) at 200 ppm [2] | mortality at 12 ppm [3] | mortality at 50 ppm [4] | mortality at 500 ppm [5] | mortality at 200 ppm [6] | percent effect (mortality or growth inhibition) at 200 ppm [7] | percent effect (mortality or growth inhibition) at 200 ppm [8] | percent control (mortality, anti-feedant effect or growth inhibition) at 200 ppm [10]

CC(c1ncnn1-c1ncccn1)N(C)C(=O)c1cc(C(F)(F)F)cc(C(F)(F)C2CC2)c1 (stereo not shown) [P58, 3-[cyclopropyl(difluoro)methyl]-N-methyl-N-[1-(2-pyrimidin-2-yl-1,2,4-triazol-3-yl)ethyl]-5-(trifluoromethyl)benzamide]
≥ 80%: percent control (mortality, anti-feedant effect or growth inhibition) at 200 ppm [1] | percent effect (mortality or growth inhibition) at 200 ppm [2] | mortality at 12 ppm [3] | mortality at 50 ppm [4] | mortality at 500 ppm [5] | percent effect (mortality or growth inhibition) at 200 ppm [7] | percent effect (mortality or growth inhibition) at 200 ppm [8] | percent effect (mortality, anti-feeding or growth inhibition) at 12.5 ppm [9] | percent control (mortality, anti-feedant effect or growth inhibition) at 200 ppm [10]

CC(NC(=O)c1cc(C(F)(F)F)cc(C(F)(F)C2CC2)c1)c1ncnn1-c1ncccn1 (stereo not shown) [P59, 3-[cyclopropyl(difluoro)methyl]-N-[1-(2-pyrimidin-2-yl-1,2,4-triazol-3-yl)ethyl]-5-(trifluoromethyl)benzamide]
≥ 80%: percent control (mortality, anti-feedant effect or growth inhibition) at 200 ppm [1] | percent effect (mortality or growth inhibition) at 200 ppm [2] | mortality at 12 ppm [3] | mortality at 50 ppm [4] | mortality at 500 ppm [5] | percent effect (mortality or growth inhibition) at 200 ppm [7] | percent effect (mortality or growth inhibition) at 200 ppm [8] | percent effect (mortality, anti-feeding or growth inhibition) at 12.5 ppm [9] | percent control (mortality, anti-feedant effect or growth inhibition) at 200 ppm [10]

CC(NC(=O)c1cc(C2CC2(F)F)cc(C(F)(F)F)c1)c1ncnn1-c1ncccn1 (stereo not shown) [P87, 3-(2,2-difluorocyclopropyl)-N-[1-(2-pyrimidin-2-yl-1,2,4-triazol-3-yl)ethyl]-5-(trifluoromethyl)benzamide]
≥ 80%: percent control (mortality, anti-feedant effect or growth inhibition) at 200 ppm [1] | percent effect (mortality or growth inhibition) at 200 ppm [2] | mortality at 12 ppm [3] | mortality at 50 ppm [4] | percent effect (mortality or growth inhibition) at 200 ppm [7] | mortality at 200 ppm [11] | percent effect (mortality or growth inhibition) at 200 ppm [8] | percent effect (mortality, anti-feeding or growth inhibition) at 12.5 ppm [9] | percent control (mortality, anti-feedant effect or growth inhibition) at 200 ppm [10]
